Measured values published in ChEMBL document CHEMBL1201862, “PubChem BioAssay data set” (2004).
The source made the active and inactive calls. Unless noted, the rule behind the calls is not given here.

Columns and labels:
[1] = biological target: E3 ubiquitin-protein ligase XIAP (Homo sapiens, UniProt P98170); assay: Counter Screen using XIAP-Bir3 for Chemical Antagonists of Bir1/2 domains of IAP-family anti-apoptotic proteins. [Related pubchem assays (depositor defined):AID1018, AID1449, AID1514, AID1638, AID1749, AID1750, AID488957, AID488963]
Chain of E3 ubiquitin-protein ligase XIAP (P98170 whole entry): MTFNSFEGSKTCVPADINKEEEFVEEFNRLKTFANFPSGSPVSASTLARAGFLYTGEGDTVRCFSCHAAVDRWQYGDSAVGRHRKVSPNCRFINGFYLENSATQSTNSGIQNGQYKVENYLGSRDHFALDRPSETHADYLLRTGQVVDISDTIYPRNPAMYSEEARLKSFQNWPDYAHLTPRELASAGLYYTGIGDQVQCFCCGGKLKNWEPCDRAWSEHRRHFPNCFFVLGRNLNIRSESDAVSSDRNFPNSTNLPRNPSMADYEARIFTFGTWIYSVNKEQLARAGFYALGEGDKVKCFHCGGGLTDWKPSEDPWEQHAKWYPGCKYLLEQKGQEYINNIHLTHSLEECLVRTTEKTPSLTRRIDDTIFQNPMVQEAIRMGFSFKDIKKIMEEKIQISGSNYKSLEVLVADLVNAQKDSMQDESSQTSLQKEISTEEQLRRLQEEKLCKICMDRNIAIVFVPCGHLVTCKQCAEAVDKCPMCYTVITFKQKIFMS

[2] = biological target: G-protein coupled receptor 55 (Homo sapiens, UniProt Q9Y2T6); assay: selective activators of receptor GPR55 – imaging, U2OS cells, beta-arrestin-GFP redistribution, primary screen (AID 1961); assay type: functional
Chain of G-protein coupled receptor 55 (Q9Y2T6 whole entry): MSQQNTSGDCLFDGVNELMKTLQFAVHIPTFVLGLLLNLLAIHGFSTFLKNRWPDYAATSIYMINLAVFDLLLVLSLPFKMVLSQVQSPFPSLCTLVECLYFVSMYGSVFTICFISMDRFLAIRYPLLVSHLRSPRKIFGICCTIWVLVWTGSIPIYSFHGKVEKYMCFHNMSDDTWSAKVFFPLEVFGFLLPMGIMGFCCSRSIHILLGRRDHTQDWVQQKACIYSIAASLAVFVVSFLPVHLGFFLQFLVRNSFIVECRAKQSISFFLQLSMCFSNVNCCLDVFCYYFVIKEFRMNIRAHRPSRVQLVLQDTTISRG

[3] = biological target: Ephrin type-A receptor 4 (Mus musculus, UniProt Q03137); assay: EphA4 ligand-binding antagonists – biochemical, colorimetric, mouse EphA4, primary screen (AID 689); assay type: functional
Chain of Ephrin type-A receptor 4 (Q03137 whole entry): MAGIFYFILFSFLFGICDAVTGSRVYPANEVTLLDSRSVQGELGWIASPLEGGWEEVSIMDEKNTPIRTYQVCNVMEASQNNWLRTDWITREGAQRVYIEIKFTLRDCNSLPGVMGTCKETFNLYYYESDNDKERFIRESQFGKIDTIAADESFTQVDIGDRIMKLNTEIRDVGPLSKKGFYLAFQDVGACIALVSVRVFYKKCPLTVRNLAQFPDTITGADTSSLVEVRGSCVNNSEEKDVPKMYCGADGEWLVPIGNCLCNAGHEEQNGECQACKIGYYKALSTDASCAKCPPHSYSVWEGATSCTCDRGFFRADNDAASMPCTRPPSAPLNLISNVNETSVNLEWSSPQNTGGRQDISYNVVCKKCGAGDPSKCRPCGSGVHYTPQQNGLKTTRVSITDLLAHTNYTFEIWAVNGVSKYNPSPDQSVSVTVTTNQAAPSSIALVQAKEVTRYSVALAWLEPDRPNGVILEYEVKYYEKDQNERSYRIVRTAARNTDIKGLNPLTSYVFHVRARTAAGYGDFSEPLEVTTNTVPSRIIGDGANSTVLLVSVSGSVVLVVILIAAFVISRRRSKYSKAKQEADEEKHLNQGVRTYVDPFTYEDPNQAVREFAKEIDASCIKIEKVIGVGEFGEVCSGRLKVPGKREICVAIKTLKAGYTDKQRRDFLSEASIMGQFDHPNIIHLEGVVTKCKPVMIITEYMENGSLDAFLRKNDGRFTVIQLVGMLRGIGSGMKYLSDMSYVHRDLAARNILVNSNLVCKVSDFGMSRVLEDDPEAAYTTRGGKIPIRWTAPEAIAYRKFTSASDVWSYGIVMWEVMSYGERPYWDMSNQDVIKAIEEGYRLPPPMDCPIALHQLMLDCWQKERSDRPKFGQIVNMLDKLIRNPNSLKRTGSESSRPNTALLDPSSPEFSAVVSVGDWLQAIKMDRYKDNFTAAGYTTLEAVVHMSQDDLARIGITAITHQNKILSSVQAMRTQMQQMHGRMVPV

[4] = HEK-293T cell viability reduction – luminescence, B-cell screen hits, cytotoxicity control for BCR NF-kB inhibitor project, dose response (AID 489021); assay type: functional, cell-based;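 also: HEK-293T cells carrying an NF-kB luciferase reporter; cells exposed to compound for about 14 hours before viability readout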
[5] = (§1) Late stage assay provider results from the probe development effort to identify inhibitors of Protein Phosphatase Methylesterase 1 (PME-1): luminescence-based biochemical dose response assay to determine cytotoxicity of inhibitor compounds. [Related pubchem assays (depositor defined):AID2130, AID2143, AID2171, AID2174, AID2177, AID2232, AID2233, AID2291, AID2363, AID2365, AID2366, AID2368, AID2369, AID2371, AID463124, AID463130, AID463131, AID463132, AID463146, AID463149] Panel member name: Fetal Calf Serum; assay type: toxicity
[6] = as §1, with “Serum-free Media” for “Fetal Calf Serum”; assay type: toxicity

In the case of `CCC(C)N1C(=O)/C(=C/c2c(NCCCOC(C)C)nc3c(C)cccn3c2=O)SC1=S` (stereo unspecified), the IC50 [1] is reported as > 20 µM (inactive), the EC50 [2] is reported as 0.532 µM (active) and the IC50 [3] is reported as 9.88 µM (active). The IC50 [4] was > 80 µM (inactive).
In the case of `CC[C@]1(c2ccccc2C)C(=O)N(C(=O)OC)N1C(=O)OC`, the CC50 [5] is reported as > 50 µM (inactive) and the CC50 [6] is reported as > 50 µM (inactive).
